The text below walks through data of patent US20240246967A1, “AXL COMPOUNDS” (ARCUS BIOSCIENCES, INC., priority 2021, published 2024).

pIC50: −log10 of the molar value.

One test concerns the target T1, human MER (Homo sapiens, UniProt Q12866).
T1 construct: purchased Invitrogen
T1 sequence (Q12866 21-999): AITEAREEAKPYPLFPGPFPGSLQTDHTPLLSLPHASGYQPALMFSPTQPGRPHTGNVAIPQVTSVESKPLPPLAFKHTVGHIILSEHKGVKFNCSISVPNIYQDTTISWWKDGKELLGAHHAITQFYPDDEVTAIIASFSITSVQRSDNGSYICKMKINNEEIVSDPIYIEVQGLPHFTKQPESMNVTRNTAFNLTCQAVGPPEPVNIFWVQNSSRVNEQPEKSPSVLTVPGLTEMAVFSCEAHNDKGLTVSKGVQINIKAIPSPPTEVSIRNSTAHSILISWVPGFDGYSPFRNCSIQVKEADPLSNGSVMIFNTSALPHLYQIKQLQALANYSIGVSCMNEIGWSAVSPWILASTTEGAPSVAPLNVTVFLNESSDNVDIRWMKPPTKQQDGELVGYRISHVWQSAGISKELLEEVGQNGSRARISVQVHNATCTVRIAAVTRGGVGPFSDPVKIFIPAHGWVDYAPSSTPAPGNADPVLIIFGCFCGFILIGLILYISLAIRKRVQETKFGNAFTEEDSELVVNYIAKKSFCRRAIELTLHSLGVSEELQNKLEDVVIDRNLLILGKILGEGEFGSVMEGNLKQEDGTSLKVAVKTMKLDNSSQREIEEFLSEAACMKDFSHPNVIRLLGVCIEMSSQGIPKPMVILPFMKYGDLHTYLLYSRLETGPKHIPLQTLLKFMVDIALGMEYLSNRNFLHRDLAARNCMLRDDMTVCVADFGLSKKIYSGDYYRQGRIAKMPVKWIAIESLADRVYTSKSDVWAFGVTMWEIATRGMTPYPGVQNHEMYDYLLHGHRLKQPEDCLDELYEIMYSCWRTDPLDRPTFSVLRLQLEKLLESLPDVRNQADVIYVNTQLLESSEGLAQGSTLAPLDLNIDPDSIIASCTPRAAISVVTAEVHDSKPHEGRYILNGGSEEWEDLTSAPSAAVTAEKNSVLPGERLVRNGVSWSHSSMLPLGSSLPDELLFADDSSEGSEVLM
Put plainly: HTRF KinEASE-TK biochemical potency assay, MER. Conditions: 1 nM MER, 700 μM ATP, 800 nM TK Substrate-biotin. In short, it runs like this: (§1)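 Recombinant human kinase preincubated 1 h at RT with compound, then reacted 2 h at RT with 800 nM biotin-TK substrate and 700 μM ATP (final; 5 nM AXL, 1 nM TYRO3 or MER) in HEPES pH 7.4, MgCl2, BSA, DTT, 1% DMSO. HTRF 665/620 ratio read; percent activity versus DMSO and pre-quenched controls.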

Another test has as its target T2, Axl (Homo sapiens, UniProt P30530).
T2 sequence (P30530 26-894): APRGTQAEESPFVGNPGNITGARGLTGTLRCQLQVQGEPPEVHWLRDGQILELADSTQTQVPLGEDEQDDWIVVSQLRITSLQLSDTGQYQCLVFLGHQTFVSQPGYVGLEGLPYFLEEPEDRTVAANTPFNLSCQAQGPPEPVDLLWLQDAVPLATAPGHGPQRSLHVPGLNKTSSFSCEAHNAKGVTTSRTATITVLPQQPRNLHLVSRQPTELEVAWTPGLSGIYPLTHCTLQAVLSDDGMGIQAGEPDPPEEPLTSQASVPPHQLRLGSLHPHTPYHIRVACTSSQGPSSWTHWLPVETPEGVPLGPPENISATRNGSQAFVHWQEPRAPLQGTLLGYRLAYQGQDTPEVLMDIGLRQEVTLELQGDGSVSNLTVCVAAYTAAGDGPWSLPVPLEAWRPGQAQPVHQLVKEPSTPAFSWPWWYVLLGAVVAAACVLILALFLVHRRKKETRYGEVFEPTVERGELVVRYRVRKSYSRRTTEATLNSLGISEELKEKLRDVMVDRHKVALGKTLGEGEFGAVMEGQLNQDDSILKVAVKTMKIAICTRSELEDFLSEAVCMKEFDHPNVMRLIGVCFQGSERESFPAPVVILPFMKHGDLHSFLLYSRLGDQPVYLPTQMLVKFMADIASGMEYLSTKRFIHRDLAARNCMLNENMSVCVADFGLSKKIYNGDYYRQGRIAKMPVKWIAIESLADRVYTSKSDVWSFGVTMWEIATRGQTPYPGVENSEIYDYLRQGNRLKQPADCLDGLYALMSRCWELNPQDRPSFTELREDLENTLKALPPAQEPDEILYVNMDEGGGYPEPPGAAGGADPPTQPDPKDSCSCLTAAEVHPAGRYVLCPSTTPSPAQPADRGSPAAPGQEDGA
The experiment in a line: HTRF KinEASE-TK biochemical potency assay, AXL. The arrangement: purchased Invitrogen. Conditions: 5 nM AXL, 700 μM ATP, 800 nM TK Substrate-biotin. The procedure, abridged:
as §1
For orientation: Time-resolved FRET reads energy transfer from a long-lived donor to a nearby acceptor.

The pIC50 is the negative decadic logarithm of the IC50, by convention in mol/L. As to `Cc1cc(-c2n[nH]c3ncc(-c4ccc5c(c4)CCC(N4CCCC4)CC5)cc23)cc(F)c1C(N)=O` (stereo not shown) [Example 79, 2-Fluoro-6-methyl-4-(5-(7-(pyrrolidin-1-yl)-6,7,8,9-tetrahydro-5H-benzo[7]annulen-2-yl)-1H-pyrazolo[3,4-b]pyridin-3-yl)benzamide], the figures for the pIC50 on human MER and against Axl were 6.00 to 7.00 and more than 7.00, respectively.
On the same counts, the results for `NC(=O)c1ccc(-c2n[nH]c3ncc(-c4ccc5c(c4)CCC(N4CCCC4)CC5)cc23)cc1C(F)(F)F` (stereo not shown) [Example 80, 4-(5-(7-(Pyrrolidin-1-yl)-6,7,8,9-tetrahydro-5H-benzo[7]annulen-2-yl)-1H-pyrazolo[3,4-b]pyridin-3-yl)-2-(trifluoromethyl)benzamide] are 6.00 to 7.00 and more than 7.00.
For the molecule `NC(=O)c1ccc(-c2n[nH]c3ncc(-c4ccc5c(c4)CCC(N4CCCC4)CC5)cc23)cc1F` (stereo not shown) [Example 81, 2-Fluoro-4-(5-(7-(pyrrolidin-1-yl)-6,7,8,9-tetrahydro-5H-benzo[7]annulen-2-yl)-1H-pyrazolo[3,4-b]pyridin-3-yl)benzamide], the results for the negative logarithm of the IC50 (pIC50) against human MER and against Axl were 6.00 to 7.00 and more than 7.00, respectively.
`O=C(c1ccc(-c2n[nH]c3ncc(-c4ccc5c(c4)CC[C@@H](N4CCCC4)CC5)cc23)cc1Cl)N1CCNCC1` [Example 82, (S)-(2-Chloro-4-(5-(7-(pyrrolidin-1-yl)-6,7,8,9-tetrahydro-5H-benzo[7]annulen-2-yl)-1H-pyrazolo[3,4-b]pyridin-3-yl)phenyl)(piperazin-1-yl)methanone]: the pIC50 against human MER and at Axl was more than 7.00 each time.
Turning to `Cc1cc(-c2n[nH]c3ncc(-c4ccc5c(c4)CC[C@@H](N4CCCC4)CC5)cc23)cc(F)c1C(N)=O` [Example 83, (S)-2-Fluoro-6-methyl-4-(5-(7-(pyrrolidin-1-yl)-6,7,8,9-tetrahydro-5H-benzo[7]annulen-2-yl)-1H-pyrazolo[3,4-b]pyridin-3-yl)benzamide], the negative-log IC50 (pIC50) against human MER and against Axl was more than 7.00 each time.
For the molecule `NC(=O)c1ccc(-c2n[nH]c3ncc(-c4ccc5c(c4)CC[C@@H](N4CCCC4)CC5)cc23)cc1Cl` [Example 84, (S)-2-Chloro-4-(5-(7-(pyrrolidin-1-yl)-6,7,8,9-tetrahydro-5H-benzo[7]annulen-2-yl)-1H-pyrazolo[3,4-b]pyridin-3-yl)benzamide], the pIC50 on human MER and against Axl was more than 7.00 throughout.
`O=C(c1ccc(-c2n[nH]c3ncc(-c4ccc5c(c4)CC[C@@H](N4CCCC4)CC5)cc23)cc1Cl)N1CCC(O)CC1` [Example 85, (S)-(2-Chloro-4-(5-(7-(pyrrolidin-1-yl)-6,7,8,9-tetrahydro-5H-benzo[7]annulen-2-yl)-1H-pyrazolo[3,4-b]pyridin-3-yl)phenyl)(4-hydroxypiperidin-1-yl)methanone]: the values for the pIC50 at human MER and on Axl were 6.00 to 7.00 and more than 7.00, respectively.
Consider `COc1cc(-c2n[nH]c3ncc(-c4ccc5c(c4)CCC(C)(N4CCC[C@H]4C)CC5)cc23)ccc1S(N)(=O)=O` (stereo partly drawn) [Example 87, 2-Methoxy-4-(5-(7-methyl-7-((R)-2-methylpyrrolidin-1-yl)-6,7,8,9-tetrahydro-5H-benzo[7]annulen-2-yl)-1H-pyrazolo[3,4-b]pyridin-3-yl)benzenesulfonamide], for which the pIC50 at human MER is 6.00 to 7.00; against Axl, more than 7.00.
On the same counts, the results for `C[C@@H]1CCCN1C1(C)CCc2ccc(-c3cnc4[nH]nc(-c5ccc(C(=O)NC6CCOCC6)cc5)c4c3)cc2CC1` (stereo partly drawn) [Example 88, 4-(5-(7-Methyl-7-((R)-2-methylpyrrolidin-1-yl)-6,7,8,9-tetrahydro-5H-benzo[7]annulen-2-yl)-1H-pyrazolo[3,4-b]pyridin-3-yl)-N-(tetrahydro-2H-pyran-4-yl)benzamide] are less than 6.00 and more than 7.00.
In the same order, the values of `COC1CCN(C(=O)c2ccc(-c3n[nH]c4ncc(-c5ccc6c(c5)CCC(C)(N5CCC[C@H]5C)CC6)cc34)cc2)CC1` (stereo partly drawn) [Example 89, (4-Methoxypiperidin-1-yl)(4-(5-(7-methyl-7-((R)-2-methylpyrrolidin-1-yl)-6,7,8,9-tetrahydro-5H-benzo[7]annulen-2-yl)-1H-pyrazolo[3,4-b]pyridin-3-yl)phenyl)methanone] are 6.00 to 7.00 and more than 7.00.
In the case of `Cc1cc2c(cc1-c1cnc3[nH]nc(-c4ccc(C(C)(C)O)c(Cl)c4)c3c1)CCC(N1CCC[C@H]1C)CC2` (stereo partly drawn) [Example 90, 2-[2-Chloro-4-(5-{3-methyl-7-[(2R)-2-methylpyrrolidin-1-yl]-6,7,8,9-tetrahydro-5H-benzo[7]annulen-2-yl}-1H-pyrazolo[3,4-b]pyridin-3-yl)phenyl]propan-2-ol], the negative-log IC50 (pIC50) at human MER is less than 6.00; against Axl, more than 7.00.
In the same order, the values of `NS(=O)(=O)c1ccc(-c2n[nH]c3ncc(-c4ccc5c(c4)CC[C@@H](N4CCCC4)CC5)cc23)cc1Cl` [Example 91, (S)-2-Chloro-4-(5-(7-(pyrrolidin-1-yl)-6,7,8,9-tetrahydro-5H-benzo[7]annulen-2-yl)-1H-pyrazolo[3,4-b]pyridin-3-yl)benzenesulfonamide] are 6.00 to 7.00 and more than 7.00.
In the same order, the values of `NS(=O)(=O)c1ccc(-c2n[nH]c3ncc(-c4ccc5c(c4)CCN(C4CCCC4)CC5)cc23)cc1Cl` [Example 92, 2-Chloro-4-(5-(3-cyclopentyl-2,3,4,5-tetrahydro-1H-benzo[d]azepin-7-yl)-1H-pyrazolo[3,4-b]pyridin-3-yl)benzenesulfonamide] are 6.00 to 7.00 and more than 7.00.
In the same order, the values of `C[C@@H]1CCCN1C1(C)CCc2ccc(-c3cnc4[nH]nc(-c5ccc(S(N)(=O)=O)c(Cl)c5)c4c3)cc2CC1` (stereo partly drawn) [Example 93, 2-Chloro-4-(5-(7-methyl-7-((R)-2-methylpyrrolidin-1-yl)-6,7,8,9-tetrahydro-5H-benzo[7]annulen-2-yl)-1H-pyrazolo[3,4-b]pyridin-3-yl)benzenesulfonamide] are more than 7.00 and more than 7.00.
